Experimental findings from US20240299504A1, “COMPOSITIONS AND METHODS FOR TREATING ALZHEIMERS DISEASE” (priority 2023, published 2024) are described below.

The test system of one assay is osteocalcin. As to the kind of experiment: Serum osteocalcin ELISA (bone formation marker). The note with it: 6-MO female 5×FAD vs control mice; 50 μg/Kg s.c. intermittent. It is filed as in vivo, mouse. As for the experimental part:
(§1) Parathyroid hormone (human) was purchased from TOCRIS Bioscience (Cat #3011/1, Abingdon, United Kingdom). WT or 5×FAD mice (both male and female) were treated with PTH1-34 intermittently [once daily injection of hPTH1-34 (50 μg/Kg) or vehicle (0.9% sodium chloride) (as a control) by subcutaneous injection, starting at 2-MO, 5 days per week] as described previously. Mice were then subjected to behavioral tests and sacrificed for examinations of their bone and brain phenotypes at the indicated ages.
Submandibular blood collection was performed in anesthetized mice. A swift lancing motion is used to puncture the vessel. Blood sample (up to 200 μl) was collected with a pipette or other collection tube, allowed to stand at room temperature for 30 min and centrifuged for 15 min at 3000 rpm. Supernatant serum was aliquot and frozen at −80° C. until use. Mouse serum levels of osteocalcin (a marker for bone formation), PYD (pyridinoline, a marker for bone resorption), and PTH were measured using mouse osteocalcin Elisa kit (QUIDEL Corporation), METRA Serum PYD EIA kit (QUIDEL Corporation, San Diego, CA, USA), and mouse PTH Elisa kit (MyBioSource), respectively, following the manufacturers' instruction.
On the technique in general: ELISA stands for enzyme-linked immunosorbent assay.

In a further assay the test system is 5×FAD mice. As to the kind of experiment: Novel object recognition (NOR). The class given is in vivo, mouse. As for the experimental part: as §1
Mice (female and male) at the age of ˜5-MO were subjected to behavioral studies. The experimental procedures are described as previously. […] The total arm entries and the number of tri-ads were recorded to quantify the percentage of spontaneous alternation. For novel object recognition (NOR), which tests mouse's memory ability for a novel object, 20 min were recorded to analyze the time to explore the old object vs. the new object of each mouse. […] During test trials, one of the objects was replaced with a new object and mice were free to explore for another 20 min, and the time spent exploring the new object and the old object was recorded. The discrimination index is quantified as the novelty object preference, which is the time spent exploring the new object minus the time exploring the old object over the total exploration time.

For assay [1], the system named is serum inflammatory cytokines. As to the kind of experiment: Mouse serum cytokine array. The class given is in vivo. The procedure: as §1
Serum samples from 5×FAD, Tg2576, and their WT control female mice (6˜MO) were collected and used for serum cytokine detection. Cytokines were measured with Mouse Cytokine Array Panel A (R&D Systems, cat #ARY006, Minneapolis, MN, USA). Briefly, the mixture of serum and the biotinylated detection antibodies cocktail is incubated with a Mouse Cytokine Array membrane. Any cytokine/detection antibody complex present was bound on the membrane by its cognate immobilized capture antibody. After washing off the unbound protein, streptavidin-horseradish peroxidase and chemiluminescent detection reagents were added to generate light signals. The light produced at each spot is proportional to the amount of cytokine binding.

In another assay the test system is IBA1 and GFAP. As to the kind of experiment: Western blot of IBA1 and GFAP in cortex and hippocampus homogenates. It is filed as in vivo, mouse. The settings on record: 5×FAD brain homogenates (cortex and hippocampus), 6-MO female. The procedure:
as §1
Total proteins from cortex, hippocampus, or cultured astrocytes were extracted using RIPA lysis buffer [50 mM Tris-HCl (pH7.5), 150 mM NaCl, 1 mM EDTA, 1% v/v NP-40, 0.1% SDS, 1% sodium deoxycholate supplemented with Protease Inhibitor Cocktail (Roche) and 1 mM PMSF] and analyzed by Western Blot. Lysates were cleared by centrifugation at 12,000 g for 15 min at 4° C. to remove debris and to obtain homogenates. Homogenates samples were resolved by SDS-PAGE (8˜15%) gels and then electroblotted onto nitrocellulose membranes (Cat #1620112, Bio-Rad Laboratories). […] After washing with TBST 3 times, antibody reactivity was detected by the Enhanced Chemiluminescence (ECL) detection system (Amersham Biosciences). Band density of proteins was normalized in relation to loading control and analyzed using NIH ImageJ software. […]
For orientation: Immunoblotting shows a protein as a band on a membrane.

The structures appear in SMILES notation.

Take `CC[C@H](C)[C@H](NC(=O)[C@H](CCC(=O)O)NC(=O)[C@H](CO)NC(=O)[C@@H](NC(=O)[C@@H](N)CO)C(C)C)C(=O)N[C@@H](CCC(N)=O)C(=O)N[C@@H](CC(C)C)C(=O)N[C@@H](CCSC)C(=O)N[C@@H](Cc1cnc[nH]1)C(=O)N[C@@H](CC(N)=O)C(=O)N[C@@H](CC(C)C)C(=O)NCC(=O)N[C@@H](CCCCN)C(=O)N[C@@H](Cc1cnc[nH]1)C(=O)N[C@@H](CC(C)C)C(=O)N[C@@H](CC(N)=O)C(=O)N[C@@H](CO)C(=O)N[C@@H](CCSC)C(=O)N[C@@H](CCC(=O)O)C(=O)N[C@@H](CCCN=C(N)N)C(=O)N[C@H](C(=O)N[C@@H](CCC(=O)O)C(=O)N[C@@H](Cc1c[nH]c2ccccc12)C(=O)N[C@@H](CC(C)C)C(=O)N[C@@H](CCCN=C(N)N)C(=O)N[C@@H](CCCCN)C(=O)N[C@@H](CCCCN)C(=O)N[C@@H](CC(C)C)C(=O)N[C@@H](CCC(N)=O)C(=O)N[C@@H](CC(=O)O)C(=O)N[C@H](C(=O)N[C@@H](Cc1cnc[nH]1)C(=O)N[C@@H](CC(N)=O)C(=O)N[C@@H](Cc1ccccc1)C(=O)O)C(C)C)C(C)C` [PTH1-34]: in the assay on osteocalcin, the serum osteocalcin levels entry is given as “increased serum osteocalcin levels more in 5×FAD mice than that in control mice”. The “NOR, recognition of the novel object (discrimination index)” value with 5×FAD mice (5×FAD female mice ~5-MO vs 5×FAD Veh, 50 μg/Kg s.c. intermittent) is listed as “improved recognition of the novel object”. Moreover, the “NOR, cognitive function in novel object recognition” value with 5×FAD mice (5×FAD male mice ~5-MO vs Veh) is on record as “Little to no improvement”. In assay [1] (6-MO 5×FAD female mice), the “elevated serum factors (IL-1rα, IL-2, IL-3, IL-4, IL-10, CXCL9, CCL3)” value is “all reduced” and the “serum inflammation-associated factors IL1β, TNFα, TREM-1, CCL11, CCL5” value is given as “reduced”. In assay [1] (6-MO 5×FAD female mice (CCL4 decreased in 5×FAD)), the “serum factor CCL4” value is “restored”. Also, in the assay on IBA1 and GFAP, the “GFAP protein level (Western blot)” value is “lower” and the “IBA1 protein level (Western blot)” value is given as “lower”.
